Test results as given in patent publication US20240366624A1, “METHODS AND COMPOSITIONS FOR TREATING THROMBOTIC DISEASE” (Washington University, priority 2023, published 2024).
“Also recorded” adds a separate entry of the source.

What was measured:
[1] = molecular target: T1, MAO-A (monoamine oxidase A) (Homo sapiens, UniProt P21397); assay: MAO-A activity assay; type: biochemical
T1 sequence (P21397 1-527): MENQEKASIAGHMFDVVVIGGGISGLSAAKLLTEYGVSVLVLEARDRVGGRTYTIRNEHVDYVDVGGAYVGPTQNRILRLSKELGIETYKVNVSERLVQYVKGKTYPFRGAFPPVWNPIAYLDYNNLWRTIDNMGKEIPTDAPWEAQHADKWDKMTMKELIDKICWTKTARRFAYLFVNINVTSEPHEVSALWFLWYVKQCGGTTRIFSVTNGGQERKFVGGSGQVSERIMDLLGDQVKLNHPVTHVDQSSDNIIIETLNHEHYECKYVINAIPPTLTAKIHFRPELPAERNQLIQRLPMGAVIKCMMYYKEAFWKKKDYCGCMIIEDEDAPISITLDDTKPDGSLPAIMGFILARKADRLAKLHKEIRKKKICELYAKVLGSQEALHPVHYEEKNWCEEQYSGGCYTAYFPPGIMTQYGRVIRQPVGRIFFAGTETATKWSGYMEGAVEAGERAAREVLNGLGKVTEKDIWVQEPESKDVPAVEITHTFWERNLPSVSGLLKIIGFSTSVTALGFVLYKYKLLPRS

WT (C57BL/6) mice = assay: Transient middle cerebral artery occlusion (tMCAO) ischemic stroke model; type: in vivo, mouse; conditions: single iv 5 μg/g BW after tMCAO, 23 hours later
Description: FIG. 19(A-Q) is an exemplary embodiment of B12-5 having an antithrombotic effect without prolonging tail bleeding times in mice in accordance with the present disclosure. FIG. 19(A-C): Ex vivo effects of B12-5. Wild type (WT; C57BL/6) mice were treated with intravenous injection of vehicle (20% polyethylene glycol [PEG]+3% dimethyl sulfoxide [DMSO]) or B12-5 (5 μg/g body weight [BW]). One hour later, blood was drawn, followed by isolating platelets. P-selectin exposure (FIG. 19A) and αIIbβ3 integrin activation (FIG. 19B) were assessed in flow cytometry. FIG. 19C: Platelet aggregation was measured after treatment with 0.025 U/mL thrombin. The data represent the mean±SD (n=4). FIG. 19D: The plasma levels of B12-5 were analyzed by liquid chromatography-tandem mass spectrometry (LC-MS/MS) after intravenous injection of the compound (5 μg/g BW) into WT mice and quantified by comparison with a standard curve of B12-5 (mean±SD, n=3). FIG. 19E and FIG. 19F: After laser-induced cremaster arteriolar injury, intravital microscopy was conducted with WT mice pretreated with intravenous injection of saline, eptifibatide (5 μg/g BW), vehicle, or B12-5 (5 μg/g BW). The median integrated fluorescence intensities of anti-CD42c (F platelet) and anti-fibrin (F fibrin) antibodies (n=37-42 arterioles in 6 mice per group). Quantification of the antibody signal at a different time point after laser injury. FIG. 19G: Comparison of B12-5 (5 μg/g BW) with eptifibatide (5 μg/g BW) and their respective controls in inhibiting FeCl3-induced carotid artery thrombosis in WT mice. FIG. 19H and FIG. 19I: WT mice were treated with intravenous injection of vehicle control, eptifibatide (5 μg/g BW), or B12-5 (5 μg/g BW). Thirty minutes later, tail bleeding times and Hb contents were measured after amputation of the tail tip. Bars represent the median value (FIG. 19(E-1)). FIG. 19J and FIG. 19M: WT control and Ero1α conditional knockout (CKO) and knockout (KO) mice were subjected to transient middle cerebral artery occlusion (tMCAO). Twenty-three hours later, neurological deficits were assessed by the Bederson score and grip test, and infarct volume was measured as described in Methods. FIG. 19N through FIG. 19Q: WT mice were subjected to tMCAO and then treated with saline, vehicle, or B12-5 (5 μg/g BW). Twenty-three hours later, the neurological deficit and infarct volume were measured as described above. FIG. 19K and FIG. 19O: The data represent the mean±SD (n=7-8). FIG. 19L, FIG. 19M, FIG. 19P, and FIG. 19Q: The bar indicates the median with interquartile range. P values determined by unpaired Student t test (FIG. 19(A-C), FIG. 19K, and FIG. 19O) or Mann-Whitney U test (FIG. 19(E-1), FIG. 19L, FIG. 19M, FIG. 19P, and FIG. 19Q). […]

[2] = molecular target: T1, MAO-A (monoamine oxidase A); conditions: from studies; cited from earlier work
MAO-B = molecular target: T2, MAO-B (Homo sapiens, UniProt P27338); conditions: from studies; cited from earlier work
T2 sequence (P27338 1-520): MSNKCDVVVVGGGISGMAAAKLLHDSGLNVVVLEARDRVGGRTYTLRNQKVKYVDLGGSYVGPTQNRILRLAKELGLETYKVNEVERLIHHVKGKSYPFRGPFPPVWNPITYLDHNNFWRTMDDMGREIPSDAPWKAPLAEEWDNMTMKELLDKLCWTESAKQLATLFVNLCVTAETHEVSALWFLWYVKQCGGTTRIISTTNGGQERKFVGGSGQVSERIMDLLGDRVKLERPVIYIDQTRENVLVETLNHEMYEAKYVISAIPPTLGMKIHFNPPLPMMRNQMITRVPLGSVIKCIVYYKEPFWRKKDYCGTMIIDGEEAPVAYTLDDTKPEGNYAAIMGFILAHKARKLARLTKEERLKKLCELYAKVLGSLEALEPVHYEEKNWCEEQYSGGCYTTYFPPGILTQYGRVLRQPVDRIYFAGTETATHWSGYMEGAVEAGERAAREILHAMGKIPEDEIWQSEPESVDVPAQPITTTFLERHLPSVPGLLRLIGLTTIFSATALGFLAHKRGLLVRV

| Compound | effect on MAO-A activity ([1]; 10 μM) | inhibition of MAO-A activity ([1]; 30 μM) [%] | MAO-A inhibition at 100 μM (%) ([1]; 100 μM) | infarct volume (WT (C57BL/6) mice) | neurological deficits (Bederson score, grip test) (WT (C57BL/6) mice) | infarct volume (WT (C57BL/6) mice; listed as B112-5) | neurological deficits (Bederson score, grip test) (WT (C57BL/6) mice; listed as B112-5) | IC50 [2] [µM] | IC50 (MAO-B) [µM] |
| --- | --- | --- | --- | --- | --- | --- | --- | --- | --- |
| O=C(CSc1nc(O)cc(O)n1)N1c2ccccc2Sc2ccccc21 [B12-5] | without affecting | 30 | 50.7 ± 9 | significantly reduced | ameliorated | significantly reduces; also recorded: reduced | improves | – | – |
| O=C(O)c1cc(N2N=C(C(F)(F)F)/C(=C/c3ccc(-c4ccccc4)o3)C2=O)ccc1Cl [EN460] | – | – | – | – | – | – | – | 7.9 | 30.6 |
